Article PMC6691788, “Design and synthesis of phthalazine-based compounds as potent anticancer agents with potential antiangiogenic activity via VEGFR-2 inhibition” (Journal of Enzyme Inhibition and Medicinal Chemistry, 2019)

Assays:
Assay in all cases: NCI 60 cell panel SRB screen
CCRF-CEM = type: cell-based, human; conditions: Homo sapiens, single dose 10 μM, read-out: percent cell growth promotion
K-562 = type: cell-based; conditions: Homo sapiens, K562; K-562, single dose 10 μM; read-out: percent cell growth promotion
MOLT-4 = type: cell-based; conditions: Homo sapiens; MOLT-4, single dose 10 μM; read-out: percent cell growth promotion
RPMI-8226 = type: cell-based; conditions: Homo sapiens; RPMI-8226, single dose 10 μM; read-out: percent cell growth promotion
SR = type: cell-based; conditions: Homo sapiens, single dose 10 μM, read-out: percent cell growth promotion
HOP-62 = type: cell-based; conditions: Homo sapiens; HOP-62, single dose 10 μM; read-out: percent cell growth promotion
HOP-92 = type: cell-based; conditions: Homo sapiens; HOP-92, single dose 10 μM; read-out: percent cell growth promotion
NCI-H226 = type: cell-based; conditions: Homo sapiens; NCI-H226, single dose 10 μM; read-out: percent cell growth promotion
NCI-H322M = type: cell-based; conditions: Homo sapiens, single dose 10 μM, read-out: percent cell growth promotion
HCC-2998 = type: cell-based; conditions: Homo sapiens; HCC-2998, single dose 10 μM; read-out: percent cell growth promotion
HCT-116 = type: cell-based; conditions: Homo sapiens; HCT-116, single dose 10 μM; read-out: percent cell growth promotion
HCT-15 = type: cell-based; conditions: Homo sapiens; HCT-15, single dose 10 μM; read-out: percent cell growth promotion
KM12 = type: cell-based; conditions: Homo sapiens; KM12, single dose 10 μM; read-out: percent cell growth promotion
SF-268 = type: cell-based; conditions: Homo sapiens; SF-268, single dose 10 μM; read-out: percent cell growth promotion
SNB-19 = type: cell-based; conditions: Homo sapiens; SNB-19, single dose 10 μM; read-out: percent cell growth promotion
SNB-75 = type: cell-based; conditions: Homo sapiens; SNB-75, single dose 10 μM; read-out: percent cell growth promotion
U251 = type: cell-based; conditions: Homo sapiens, U-251; U251, single dose 10 μM; read-out: percent cell growth promotion
LOX IMVI = type: cell-based; conditions: Homo sapiens, read-out: percent cell growth promotion
UACC-257 = type: cell-based; conditions: Homo sapiens, UACC-257, read-out: percent cell growth promotion
UACC-62 = type: cell-based; conditions: Homo sapiens, UACC-62, read-out: percent cell growth promotion
SK-OV-3 = type: cell-based; conditions: Homo sapiens; SK-OV-3, single dose 10 μM; read-out: percent cell growth promotion
ACHN = type: cell-based; conditions: Homo sapiens, single dose 10 μM, read-out: percent cell growth promotion
CAKI-1 = type: cell-based, human; conditions: Homo sapiens; CAKI-1, single dose 10 μM; read-out: percent cell growth promotion
SN12C = type: cell-based; conditions: Homo sapiens, single dose 10 μM, read-out: percent cell growth promotion
TK-10 = type: cell-based, human; conditions: Homo sapiens; TK-10, single dose 10 μM; read-out: percent cell growth promotion
DU-145 = type: cell-based; conditions: Homo sapiens; DU-145, single dose 10 μM; read-out: percent cell growth promotion
MCF7 = type: cell-based; conditions: Homo sapiens, MCF7, read-out: percent cell growth promotion
MDA-MB 231/ATCC = type: cell-based; conditions: Homo sapiens, MDA-MB-231, read-out: percent cell growth promotion
HS 578T = type: cell-based; conditions: Homo sapiens, Hs-578T, read-out: percent cell growth promotion
BT-549 = type: cell-based; conditions: Homo sapiens, BT-549, read-out: percent cell growth promotion
T-47D = type: cell-based; conditions: Homo sapiens, T47D, read-out: percent cell growth promotion
OVCAR-5 = type: cell-based; conditions: Homo sapiens; OVCAR-5, single dose 10 μM; read-out: percent cell growth promotion

Compound	activity at 10 µM (CCRF-CEM)	activity at 10 µM (K-562)	activity at 10 µM (RPMI-8226)	activity at 10 µM (SR)	activity at 10 µM (HOP-62)	activity at 10 µM (HOP-92)	activity at 10 µM (NCI-H226)	activity at 10 µM (NCI-H322M)	activity at 10 µM (HCC-2998)	activity at 10 µM (HCT-116)	activity at 10 µM (HCT-15)	activity at 10 µM (KM12)	activity at 10 µM (SF-268)	activity at 10 µM (SNB-19)	activity at 10 µM (SNB-75)	activity at 10 µM (U251)	activity at 10 µM (LOX IMVI)	activity at 10 µM (UACC-257)	activity at 10 µM (UACC-62)	activity at 10 µM (SK-OV-3)	also measured
O=C(Nc1ccc(Nc2nncc3ccccc23)cc1)c1ccc(Cl)cc1 [Compound 5b, 4-Chloro-N-(4-(phthalazin-1-ylamino)phenyl)benzamide]	103%	102%	104%	95%	91.8%	97.5%	77.9%	109%	113%	100%	109%	103%	98%	104%	98.1%	99.5%	99.9%	93%	89.8%	87.3%	activity at 10 µM (MOLT-4): 97.3%; activity at 10 µM (ACHN): 112%; activity at 10 µM (CAKI-1): 94.6%; activity at 10 µM (SN12C): 100%; activity at 10 µM (TK-10): 116%; activity at 10 µM (DU-145): 114%; activity at 10 µM (MCF7): 93%; activity at 10 µM (MDA-MB 231/ATCC): 93.3%; activity at 10 µM (HS 578T): 105%; activity at 10 µM (BT-549): 107%; activity at 10 µM (T-47D): 97.6%
Cc1nnc(N2CCN(c3ccccc3F)CC2)c2ccccc12 [Compound 8h, 1–(4-(2-Fluorophenyl)piperazin-1-yl)-4-methylphthalazine]	99.7%	110%	101%	95.1%	100%	112%	90.1%	121%	101%	95.6%	91.8%	113%	110%	99.9%	109%	96.2%	106%	95.3%	99.2%	105%	activity at 10 µM (MOLT-4): 102%; activity at 10 µM (OVCAR-5): 87.9%; activity at 10 µM (ACHN): 98.4%; activity at 10 µM (CAKI-1): 86.8%; activity at 10 µM (SN12C): 100%; activity at 10 µM (TK-10): 88.7%; activity at 10 µM (DU-145): 107%; activity at 10 µM (MCF7): 86.5%; activity at 10 µM (MDA-MB 231/ATCC): 121%; activity at 10 µM (HS 578T): 110%; activity at 10 µM (T-47D): 82.3%
Cc1nnc(N2CCN(c3ccccn3)CC2)c2ccccc12 [Compound 8i, 1-Methyl-4–(4-(pyridin-2-yl)piperazin-1-yl)phthalazine]	102%	101%	104%	92.1%	99.8%	119%	98.7%	107%	102%	98.1%	90.3%	110%	106%	101%	114%	98.6%	102%	98.5%	101%	108%	activity at 10 µM (MOLT-4): 96.1%; activity at 10 µM (OVCAR-5): 98.2%; activity at 10 µM (ACHN): 99.6%; activity at 10 µM (CAKI-1): 94.8%; activity at 10 µM (SN12C): 104%; activity at 10 µM (TK-10): 83.2%; activity at 10 µM (DU-145): 111%; activity at 10 µM (MCF7): 89.1%; activity at 10 µM (MDA-MB 231/ATCC): 117%; activity at 10 µM (HS 578T): 109%; activity at 10 µM (T-47D): 96%
O=C(Nc1ccc(Cl)cc1)Nc1ccc(Oc2nnc(Cl)c3ccccc23)cc1 [Compound 13b, 1–(4-Chlorophenyl)-3–(4-(4-chlorophthalazin-1-yloxy)phenyl)urea]	66%	93.2%	87.7%	82.8%	93.3%	104%	81.4%	99.1%	115%	97.8%	94.1%	84.5%	85.8%	103%	74%	86.7%	86.2%	89.9%	75.7%	88.6%	activity at 10 µM (OVCAR-5): 113%; activity at 10 µM (ACHN): 80.7%; activity at 10 µM (CAKI-1): 99.1%; activity at 10 µM (SN12C): 91.4%; activity at 10 µM (TK-10): 109%; activity at 10 µM (DU-145): 86.8%; activity at 10 µM (MCF7): 86.2%; activity at 10 µM (MDA-MB 231/ATCC): 67.5%; activity at 10 µM (HS 578T): 97.9%; activity at 10 µM (BT-549): 96.8%; activity at 10 µM (T-47D): 70.5%
